The source of these data is patent US20200247812A1 (Integral Biosciences Private Limited, priority 2018, published 2020).

Molecules are shown by their SMILES. A value given as a limit tells only on which side of the number the result lay.

Holding throughout (assay type): cell-based
The subject of assay [1] is phosphorylation of Smad-2 in THP-1 cells. Description: Inhibition of phosphorylation of Smad-2 in THP-1 cells (Phospho-Smad2 ELISA). The following applies: 1.5 h, human TGF-β 20 ng/ml, 90 min, read-out: pSmad2 IC50. The protocol: IC50 values of compounds for determining inhibition of phosphorylation of Smad-2 in THP-1 cells (ATCC, Cat # ATCC® TIB-202™) cultured in RPMI medium, (Cat #22400089; with 10% FBS, Gibco, ThermoFisher). THP-1 cells (1.0×10^6 cells/well; 6 well plate) were incubated with serial dilutions of compounds (3 fold, 5 point dose response starting at 10 μM) for 60 min at 37° C., 5% CO2 in an incubator (cell culture conditions) prior to treating them with Recombinant Human TGF-β (20 ng/ml soluble; Cat #100-21, Peprotech) for 90 min. The cells were then pelleted and processed for protein estimation and evaluation of pSmad using ELISA kit from Cell Signaling (PathScan(R) Phospho-Smad2 (Ser465/467) Sandwich ELISA; Cat #7348C) as per manufacturer's protocol. Data analysis was done by subtracting the background absorbance (only negative control) value from each reading and then normalizing with the vehicle control (DMSO treated cells) to obtain percent levels of pSmad-2. Percent inhibition thus obtained (by subtracting expression levels of pSmad from 100) at different doses was used to calculate IC50 by fitting the curve to the “four-parameter variable slope logistic model” using Prism Graph Pad.

Assay [2] concerns mIFN-γ release by activated mouse splenocytes. Description: Mouse splenocyte assay: reversal of TGF-β suppressed, CD3e/CD28 induced mIFN-γ release (ELISA). The following applies: Balb/c splenocytes, anti-CD3e/CD28, mouse TGF-β 10 ng/ml, 72 hr, read-out: Inhibition of mIFN-γ release by activated Mouse Splenocyte, IC50. The protocol: IC50 values of compounds for reversal of TGF-β suppressed and CD3e/CD28 induced mIFNγ release was determined in mouse splenocytes isolated from Balb/c mice cultured in RPMI, Cat #22400089; 10% FBS, Gibco, ThermoFisher). Mouse splenocytes (2×10^5 cells/well) were activated with Anti-mouse CD3e (2.5 μg/ml, coated overnight at 4° C.; Cat #14-0032-82, eBioscience) and then incubated with serial dilutions of compounds (3 fold, 8 point dose response starting at 3 μM) in the presence of mouse TGF-β (10 ng/ml; Cat #14-8342-80, ebiosciences) for 30 min at 37° C., 5% CO2 in an incubator (cell culture conditions) prior to treating them with Anti-mouse CD28 (0.1 μg/ml soluble; Cat #16-0281-82, eBiosciences). Splenocytes were further incubated under cell culture conditions for 72 hr after which the supernatant was harvested, diluted to 1:50 and ELISA was performed as per the manufacturer's protocol (mIFN-γ kit; Cat #555138 & 550534, BD Biosciences). Plates were read in Biotek plate reader by measuring absorbance at 450 nm.
The reversal of TGF-β suppressed mIFN-γ release by compounds was quantified by first obtaining the amount of mIFN-γ (in pg/ml) released at each concentration of the compound with respect to the mIFN-γ standard. […] The IC50 was calculated by fitting the curve to the “four-parameter variable slope logistic model” using Prism Graph Pad.
For orientation: An ELISA detects its analyte on a solid surface through an enzyme-linked reagent.

For the next assay, the system named is HT29. Description: Cell viability assay (resazurin), HT29. The following applies: Homo sapiens, HT-29, 72-144 hr. As for the experimental part:
Different cell lines such as pancreatic, (MIA PaCa-2; ATCC®CRL-1420™ & and Panc-1; CRL-1469™), liver carcinoma (HepG2; ATCC® HB-8065™), lung epithelial carcinoma (A549; ATCC® CCL-185™) and others were seeded in their respective medium (DMEM, Cat #10569044, MEM, Cat #41090036; RPMI, Cat #22400089; all with 10% FBS, Gibco, ThermoFisher) at a cell count of 3000 cells per 100 μl per well in a 96 well edge plate (167425; ThermoFisher). Cells were allowed to grow at 37° C. for 24 hr in 5% CO2 (culture conditions) in a Nuaire incubator (humidified). Serially diluted compounds (100 μl) were added to the culture plate 24 hr later and the cultures were further incubated in culture conditions for specified time depending on doubling time of specific cell line (ranging from 72-144 hr). […] Fluorescence was then measured using a multimodal plate reader (Biotek Synergy Neo) at an excitation wavelength of 535 nm and emission wavelength of 590 nm to obtain relative fluorescence units. Data analysis was done by subtracting the background fluorescence (only medium blank) value from each reading and then normalizing with the vehicle control (DMSO treated cells) to obtain percent survival/proliferation. […]

For another assay, the system named is HepG2. Description: Cell viability assay (resazurin), HepG2. The following applies: Homo sapiens, 72-144 hr. As for the experimental part:
(§1) Different cell lines such as pancreatic, (MIA PaCa-2; ATCC®CRL-1420™ & and Panc-1; CRL-1469™), liver carcinoma (HepG2; ATCC® HB-8065™), lung epithelial carcinoma (A549; ATCC® CCL-185™) and others were seeded in their respective medium (DMEM, Cat #10569044, MEM, Cat #41090036; RPMI, Cat #22400089; all with 10% FBS, Gibco, ThermoFisher) at a cell count of 3000 cells per 100 μl per well in a 96 well edge plate (167425; ThermoFisher). Cells were allowed to grow at 37° C. for 24 hr in 5% CO2 (culture conditions) in a Nuaire incubator (humidified). Serially diluted compounds (100 μl) were added to the culture plate 24 hr later and the cultures were further incubated in culture conditions for specified time depending on doubling time of specific cell line (ranging from 72-144 hr). Experiment was terminated at the completion of incubation time with the drug by replacing the medium with 100 μl of 1 mM of resazurin (R7017; Sigma) prepared in respective culture medium and the plates were further incubated in culture conditions for 4 hr. Fluorescence was then measured using a multimodal plate reader (Biotek Synergy Neo) at an excitation wavelength of 535 nm and emission wavelength of 590 nm to obtain relative fluorescence units. Data analysis was done by subtracting the background fluorescence (only medium blank) value from each reading and then normalizing with the vehicle control (DMSO treated cells) to obtain percent survival/proliferation. Percent survival at different doses was used to calculate IC50 by fitting the curve to the “four-parameter variable slope logistic model” using Prism Graph Pad.
A general note: The colour change of resazurin is a common sign of viable cells or microbes.

Another assay relates to MCF7. In words: Cell viability assay (resazurin), MCF7. The following applies: Homo sapiens, 72-144 hr. The protocol:
as §1

In another assay the test system is A549. Description: Cell viability assay (resazurin), A549. The following applies: Homo sapiens, 72-144 hr. The protocol:
as §1

The test system of another assay is 22Rv1. In words: Cell viability assay (resazurin), 22Rv1. The following applies: Homo sapiens, 72-144 hr. As for the experimental part: as §1
In a further assay the test system is AsPC-1. In words: Cell viability assay (resazurin), AsPC-1. The following applies: Homo sapiens, ASPC1, 72-144 hr. As for the experimental part: as §1

For the molecule `CC(C)c1[nH]c(=O)c(-c2cc(Cl)ccc2F)cc1Nc1ccnc2[nH]ccc12` [Compound 1.50, 5-((1H-pyrrolo[2,3-b]pyridin-4-yl)amino)-3-(5-chloro-2-fluorophenyl)-6-isopropylpyridin-2(1H)-one], the IC50 was 0.539 µM in assay [1]; 0.107 µM in assay [2]; 3.82 µM with HT29; greater than 30 µM with HepG2; greater than 10 µM in the assay on MCF7; greater than 30 µM in the assay on A549.

Consider `CC(=O)Nc1cc(Nc2cc(-c3cc(Cl)ccc3F)c(=O)[nH]c2C(C)C)ccn1` [Compound 1.48, N-(4-((5-(5-chloro-2-fluorophenyl)-2-isopropyl-6-oxo-1,6-dihydropyridin-3-yl)amino)pyridin-2-yl)acetamide], for which the 50% inhibitory concentration (IC50) with 22Rv1 is greater than 30 µM; in assay [1] it was 0.123 µM; in assay [2], 0.156 µM; in the assay with AsPC-1 it was greater than 30 µM; with HT29, 14.7 µM; in the assay with HepG2 it was greater than 30 µM. Further, the results for the IC50 in the assay with MCF7 and in the assay with A549 were greater than 10 µM and greater than 30 µM, respectively.

What is called IC50 is the midpoint of a concentration-inhibition curve.
